Results from patent US8895585B2, “Nicotinamide derivative or salt thereof” (FUJIFILM Corporation, priority 2010, dated 2014).
Counter-ions that a name gives are not always drawn. Like-named read-outs stand apart in the source and are kept apart here.

Legend:
[1] = target: T1, glutathione S-transferase (GST)-fused full-length human Syk protein (Homo sapiens, UniProt P43405); assay: Syk enzyme assay; assay type: biochemical
T1 construct: (GST)-fused full-length human Syk protein; GST (glutathione S-transferase); purchased Carna Biosciences
Procedure, shortened: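 Baculovirus-expressed enzyme (1.2 ng) was preincubated with compound in HEPES pH 7.0/MgCl2/DTT buffer, 2 min shaking then 13 min at room temperature. Biotin-EDPDYEWPSA-NH2 (0.4 μM final) and ATP (27 μM final) were added for 40 min at room temperature. EDTA stop, streptavidin-XL/PT66-K TR-FRET at 615/665 nm gave IC50.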

THP-1 cells = assay: TNFα generation assay; assay type: cell-based, human
Procedure, shortened: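 Secreted TNFα in supernatant quantified by ELISA or AlphaLISA after 7 h culture on human IgG-coated wells (10 μg/ml coating). Cells were IFN-γ-differentiated THP-1 (10 ng/ml, 2 days), exposed to compound for 30 min at room temperature before plating.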

[2] = Syk enzyme assay, Test Example 1, read-out: IC50 of Syk-inhibitory activity
[3] = Homo sapiens, THP-1, THP-1 cells, Table 22, read-out: IC50 in TNFα generation assay

Compound `C[C@H](N)[C@@H](C)Nc1nc(Nc2cncc(-n3cccn3)c2)c(C(N)=O)cc1F` (racemic) [Example 006-192, 2-((5-(1H-pyrazol-1-yl)pyridin-3-yl)amino)-6-(((2R,3S)-3-aminobutan-2-yl)amino)-5-fluoronicotinamide 2-((5-(1H-pyrazol-1-yl)pyridin-3-yl)amino)-6-(((2S,3R)-3-aminobutan-2-yl)amino)-5-fluoronicotinamide] has an IC50 [1, 2] of 10 to 50 nM and an IC50 (THP-1 cells; [3]) of 65 to 130 nM.
In the case of `Cc1cncc(Nc2nc(NC3CCCCC3N)c(Br)cc2C(N)=O)c1` (stereo not shown) [Example 035-007], the IC50 [1, 2] is reported as less than 10 nM and the IC50 (THP-1 cells; [3]) is reported as 65 to 130 nM.
In the case of `CCCC[C@H](CN)Nc1nc(Nc2ccc3c(cnn3CCF)c2)c(C(N)=O)cc1F` [Example 006-414, (R)-6-((1-aminohexan-2-yl)amino)-5-fluoro-2-((1-(2-fluoroethyl)-1H-indazol-5-yl)amino)nicotinamide], the IC50 [1, 2] is reported as less than 10 nM and the IC50 (THP-1 cells; [3]) is reported as 65 to 130 nM.
In the case of `CCC[C@@H](Nc1nc(Nc2ccc3nccnc3c2)c(C(N)=O)cc1F)[C@H](C)N` [Example 006-240, 6-(((2S,3R)-2-aminohexan-3-yl)amino)-5-fluoro-2-((quinoxalin-6-yl)amino)nicotinamide], the IC50 [1, 2] is reported as less than 10 nM and the IC50 (THP-1 cells; [3]) is reported as less than 65 nM.
`NC(=O)c1cc(F)c(N[C@@H]2CCCC[C@@H]2N)nc1Nc1cncc(-c2ccncc2)c1` [Example 004-104] showed an IC50 [1, 2] of 10 to 50 nM and an IC50 (THP-1 cells; [3]) of 130 to 200 nM.
In the case of `Cc1cncc(Nc2nc(N[C@@H]3CCCC[C@@H]3N)c(Cl)cc2C(N)=O)c1` (relative stereo) [Example 34, 6-(cis-2-aminocyclohexylamino)-5-chloro-2-(5-methylpyridin-3-ylamino)nicotinamide•hydrochloride], the IC50 ([1]; read-out: Syk-inhibitory activity (IC50)) is reported as no more than 1000 nM and the IC50 (THP-1 cells; Homo sapiens, THP-1, 7 h, IFN-γ-differentiated THP-1 cells on human IgG-coated plate, cultured 7 hours, read-out: TNFα generation inhibitory activity (IC50)) is reported as no more than 200 nM.
`CC[C@@H](Nc1nc(Nc2cc(OC)nc(OC)c2)c(C(N)=O)cc1F)[C@H](C)N` [Example 006-267, 6-(((2S,3R)-2-aminopentan-3-yl)amino)-2-((2,6-dimethoxypyridin-4-yl)amino)-5-fluoronicotinamide] was tested, and the IC50 [1, 2] was less than 10 nM and the IC50 (THP-1 cells; [3]) was less than 65 nM.
For `C[C@H](N)[C@@H](C)Nc1nc(Nc2cccc(-n3nccn3)c2)c(C(N)=O)cc1F` (racemic) [Example 006-111, 2-((3-(2H-1,2,3-triazol-2-yl)phenyl)amino)-6-(((2R,3S)-3-aminobutan-2-yl)amino)-5-fluoronicotinamide 2-((3-(2H-1,2,3-triazol-2-yl)phenyl)amino)-6-(((2S,3R)-3-aminobutan-2-yl)amino)-5-fluoronicotinamide], the IC50 [1, 2] was less than 10 nM and the IC50 (THP-1 cells; [3]) was 65 to 130 nM.
`NC(=O)c1cc(F)c(N[C@@H]2CCCC[C@@H]2N)nc1Nc1cncc(-c2cccc(N)c2)c1` [Example 043-000] gave an IC50 [1, 2] of less than 10 nM and an IC50 (THP-1 cells; THP-1 cells, Table 22, read-out: IC50 in TNFα generation assay) of 65 to 130 nM.
`COc1cc(Nc2nc(N[C@@H](CN)CC(C)C)c(F)cc2C(N)=O)ccn1` [Example 006-234, (R)-6-((1-amino-4-methylpentan-2-yl)amino)-5-fluoro-2-((2-methoxypyridin-4-yl)amino)nicotinamide] was tested, and the IC50 [1, 2] was less than 10 nM and the IC50 (THP-1 cells; [3]) was 65 to 130 nM.
In the case of `Cc1cc(Nc2nc(N[C@H](CC3CC3)[C@H](C)N)c(F)cc2C(N)=O)cnc1C` [Example 006-435, 6-(((2R,3S)-3-amino-1-cyclopropylbutan-2-yl)amino)-2-((5,6-dimethylpyridin-3-yl)amino)-5-fluoronicotinamide], the IC50 [1, 2] is reported as less than 10 nM and the IC50 (THP-1 cells; [3]) is reported as 65 to 130 nM.
For `NC(=O)c1cc(F)c(N[C@@H]2CCCC[C@@H]2N)nc1Nc1cnc(-n2cccn2)c(F)c1` [Example 006-447, 6-(((1R,2S)-2-aminocyclohexyl)amino)-5-fluoro-2-((5-fluoro-6-(1H-pyrazol-1-yl)pyridin-3-yl)amino)nicotinamide], the IC50 [1, 2] was 10 to 50 nM and the IC50 (THP-1 cells; [3]) was 130 to 200 nM.
Work on `CC[C@H](N)[C@@H](C)Nc1nc(Nc2ccc3c(cnn3CCOC)c2)c(C(N)=O)cc1F` [Example 006-363, 6-(((2R,3S)-3-aminopentan-2-yl)amino)-5-fluoro-2-((1-(2-methoxyethyl)-1H-indazol-5-yl)amino)nicotinamide] yielded an IC50 [1, 2] of less than 10 nM and an IC50 (THP-1 cells; [3]) of 65 to 130 nM.
In the case of `CC(C)c1nn(C)c2ccc(Nc3nc(N[C@@H]4CCCC[C@@H]4N)c(F)cc3C(N)=O)cc12` [Example 006-461, 6-(((1R,2S)-2-aminocyclohexyl)amino)-5-fluoro-2-((3-isopropyl-1-methyl-1H-indazol-5-yl)amino)nicotinamide], the IC50 [1, 2] is reported as less than 10 nM and the IC50 (THP-1 cells; [3]) is reported as 65 to 130 nM.
`NC(=O)c1cc(F)c(N[C@@H]2CCCC[C@@H]2N)nc1Nc1ccnc2c1ccn2CCN1CCCCC1` [Example 004-029] was tested, and the IC50 [1, 2] was less than 10 nM and the IC50 (THP-1 cells; [3]) was 130 to 200 nM.
Work on `CCCC[C@H](CN)Nc1nc(Nc2cnc3cc(OC)ccc3c2)c(C(N)=O)cc1F` [Example 006-293, (R)-6-((1-aminohexan-2-yl)amino)-5-fluoro-2-((7-methoxyquinolin-3-yl)amino)nicotinamide] yielded an IC50 [1, 2] of less than 10 nM and an IC50 (THP-1 cells; [3]) of 65 to 130 nM.
`CCC[C@@H](Nc1nc(Nc2ccc3c(OC)nccc3c2)c(C(N)=O)cc1F)[C@H](C)N` [Example 006-239, 6-(((2S,3R)-2-aminohexan-3-yl)amino)-5-fluoro-2-((1-methoxyisoquinolin-6-yl)amino)nicotinamide] was tested, and the IC50 [1, 2] was less than 10 nM and the IC50 (THP-1 cells; [3]) was less than 65 nM.
With `CC(C)C[C@H](CN)Nc1nc(Nc2ccnc(-n3cncn3)c2)c(C(N)=O)cc1F` [Example 006-153, (R)-2-((2-(1H-1,2,4-triazol-1-yl)pyridin-4-yl)amino)-6-((1-amino-4-methylpentan-2-yl)amino)-5-fluoronicotinamide] the IC50 [1, 2] was less than 10 nM and the IC50 (THP-1 cells; [3]) was less than 65 nM.
With `NC(=O)c1cc(F)c(NC2CCCCC2N)nc1Nc1ccc2c(F)nn(CCF)c2c1` (stereo not shown) [Example 002-205] the IC50 [1, 2] was less than 10 nM and the IC50 (THP-1 cells; [3]) was 65 to 130 nM.
`NC(=O)c1cc(F)c(N[C@@H]2CCCC[C@@H]2N)nc1Nc1cncc(Cl)c1` (relative stereo) [Example 004-097, 6-(cis-2-aminocyclohexylamino)-2-((5-chloropyridin-3-yl)amino)-5-fluoronicotinamide] showed an IC50 [1, 2] of less than 10 nM and an IC50 (THP-1 cells; [3]) of 65 to 130 nM.
With `NC(=O)c1cc(F)c(NC2CCCCC2N)nc1Nc1ccc2cnn(CCF)c2c1` (stereo not shown) [Example 002-201] the IC50 [1, 2] was less than 10 nM and the IC50 (THP-1 cells; [3]) was 65 to 130 nM.
`CCC[C@@H](Nc1nc(Nc2ccc3cccnc3c2)c(C(N)=O)cc1F)[C@H](C)N` [Example 006-244, 6-(((2S,3R)-2-aminohexan-3-yl)amino)-5-fluoro-2-((quinolin-7-yl)amino)nicotinamide] gave an IC50 [1, 2] of less than 10 nM and an IC50 (THP-1 cells; [3]) of 65 to 130 nM.
For `CCc1nn(C)c2ccc(Nc3nc(N[C@H](CC4CC4)[C@H](C)N)c(F)cc3C(N)=O)cc12` [Example 006-505, 6-(((2R,3S)-3-amino-1-cyclopropylbutan-2-yl)amino)-2-((3-ethyl-1-methyl-1H-indazol-5-yl)amino)-5-fluoronicotinamide], the IC50 [1, 2] was less than 10 nM and the IC50 (THP-1 cells; [3]) was 130 to 200 nM.
`NC(=O)c1cc(F)c(N[C@@H]2CCCC[C@@H]2N)nc1Nc1cncc(-c2ccc[nH]2)c1` (relative stereo) [Example 004-053] was tested, and the IC50 [1, 2] was less than 10 nM and the IC50 (THP-1 cells; [3]) was 65 to 130 nM.
`C[C@H](CN)Nc1nc(Nc2ccc3c(cnn3C)c2)c(C(N)=O)cc1F` [Example 006-102, (R)-6-((1-aminopropan-2-yl)amino)-5-fluoro-2-((1-methyl-1H-indazol-5-yl)amino)nicotinamide] was tested, and the IC50 [1, 2] was 10 to 50 nM and the IC50 (THP-1 cells; [3]) was 65 to 130 nM.
Work on `COc1ccccc1-c1cncc(Nc2nc(N[C@@H]3CCCC[C@@H]3N)c(F)cc2C(N)=O)c1` (relative stereo) [Example 004-149, 6-(cis-2-aminocyclohexylamino)-5-fluoro-2-((5-(2-methoxyphenyl)pyridin-3-yl)amino)-nicotinamide] yielded an IC50 [1, 2] of less than 10 nM and an IC50 (THP-1 cells; [3]) of 130 to 200 nM.
`COc1ccc2cc(Nc3nc(N[C@H](C)[C@H](C)N)c(F)cc3C(N)=O)cnc2c1` (racemic) [Example 006-174, 6-(((2R,3S)-3-aminobutan-2-yl)amino)-5-fluoro-2-((7-methoxyquinolin-3-yl)amino)nicotinamide 6-(((2S,3R)-3-aminobutan-2-yl)amino)-5-fluoro-2-((7-methoxyquinolin-3-yl)amino)nicotinamide] was tested, and the IC50 [1, 2] was less than 10 nM and the IC50 (THP-1 cells; [3]) was less than 65 nM.
Work on `NC(=O)c1cc(F)c(N[C@@H]2CCCC[C@@H]2N)nc1Nc1cncc(-c2ccoc2)c1` (relative stereo) [Example 004-078, 6-(cis-2-aminocyclohexylamino)-5-fluoro-2-((5-(furan-3-yl)pyridin-3-yl)amino)-nicotinamide] yielded an IC50 [1, 2] of less than 10 nM and an IC50 (THP-1 cells; [3]) of 65 to 130 nM.
For `Cc1cncc(Nc2nc(NC[C@H](C)N)c(F)cc2C(N)=O)c1` [Example 006-094, (S)-6-((2-aminopropyl)amino)-5-fluoro-2-((5-methylpyridin-3-yl)amino)nicotinamide], the IC50 [1, 2] was 10 to 50 nM and the IC50 (THP-1 cells; [3]) was 65 to 130 nM.
`CC[C@@H](Nc1nc(Nc2ccc3c(c2)c(OC)nn3C)c(C(N)=O)cc1F)[C@H](C)N` [Example 006-588, 6-(((2S,3R)-2-aminopentan-3-yl)amino)-5-fluoro-2-((3-methoxy-1-methyl-1H-indazol-5-yl)amino)nicotinamide] was tested, and the IC50 [1, 2] was less than 10 nM and the IC50 (THP-1 cells; [3]) was less than 65 nM.
Work on `CC[C@H](N)[C@@H](CC)Nc1nc(Nc2ccnc(OC)c2)c(C(N)=O)cc1F` [Example 006-381, 6-(((3R,4S)-4-aminohexan-3-yl)amino)-5-fluoro-2-((2-methoxypyridin-4-yl)amino)nicotinamide] yielded an IC50 [1, 2] of 10 to 50 nM and an IC50 (THP-1 cells; [3]) of 65 to 130 nM.
Compound `NC(=O)c1cc(F)c(N[C@@H]2CCCC[C@@H]2N)nc1Nc1cnc2c(N)cccc2c1` (relative stereo) [Example 004-059] has an IC50 [1, 2] of less than 10 nM and an IC50 (THP-1 cells; [3]) of less than 65 nM.
